Data set [1] in a line: T1/T2 relaxivity measurements in PBS. The class given is physicochemical. Conditions: 37 °C. As for the experimental part:
The T1 relaxivity (r1) and T2 relaxivity (r2) of 1, GP1, and GP2 were measured at both low (1.41 T) and high (7 T) magnetic field strength in phosphate-buffered saline (PBS) to quantify how well they behave as MR contrast agents. […] The relaxivity values for 1 are well within the range of what is expected for a small molecule Gd(III) complex.[34] […] At 7 T, there was little change in r1 for both agents, while both r2 values increased, as expected. […]
solution. These capillaries were imaged using a Bruker PharmaScan 7 T MR imaging spectrometer (Bruker BioSpin, Billerica, MA, USA). T1 relaxation times were measured using a rapid-acquisition rapid-echo (RARE-VTR) T1-map pulse sequence with static TE (10 ms) and […]
parameters were as follows: field of view (FOV) = 25 x 25 mm2, matrix size (MTX) = 256 x 256, number of axial slices = 5, slice thickness (SI) = 1.0 mm, and averages (NEX) = 4. T1 analysis was carried out using the image sequence analysis tool in Paravision 5.0 pl2 software (Bruker, Billerica, MA, USA) with monoexponential curve-fitting of image intensities of selected regions of interest (ROIs) for each axial slice. […]
Fig. S2 Graph of r1 of (A) GP1 measured at 1.41 T (B) GP1 measured at 7 T (C) GP2 measured at 1.41 T
(D) GP2 measured at 7 T (E) 1 measured at 1.41 T (F) 1 measured at 7 T. All measurements were taken in PBS at 37 °C (G) 1 measured at 1.41 T with 5 mM GSH (H) GP1 measured at 1.41 T with 5 mM GSH and (I) GP2 measured at 1.41 T with 5 mM GSH.
Table S1. r1 of GP1, GP2, and 1 in PBS with 5 mM glutathione at 37 °C
GP1 (5 mM GSH) GP2 (5 mM GSH) 1 (5 mM GSH)

For data set [2], the system named is A2780 cells. As to the kind of experiment: Cell viability assay (CellTiter-Glo 2.0). The class given is cell-based. Conditions: A2780, 48 h incubation. The procedure: (§1) To assess the cytotoxicity of GP1 and GP2in vitro, cell viability assays were performed to determine the IC50 concentrations in three cancer cell lines (A2780, HeLa, and MCF-7). Table 2 summarizes the IC50 concentrations of both agents compared to those of cisplatin and carboplatin. […] For all cell lines, GP1 was less toxic than cisplatin but followed the same trend of highest toxicity in A2780 cells and least toxic in MCF-7 cells. GP1 releases cisplatin intracellularly, therefore the apparent difference in toxicity of the two is likely due to decreased cell permeability of GP1 caused by the Gd(III) complex. However, because GP1 is inert in the extracellular matrix, higher doses can be safely administered to account for the decreased cell permeability. […]
(§2) lines were grown in a humidified incubator at 37 °C and 5% CO2 and were harvested using 0.25% TrypLE. Cells were grown for 24 hours after plating before each experiment. All solutions were filtered through […] sterile filters before use.
(§3) Viability Assays. A2780, HeLa, and MCF-7 cells were plated at a density of 3,000 cells per well (100 µL) in an opaque white 96-well plate. Cells were dosed with 100 µL of solutions of GP1, GP2, cisplatin, or carboplatin in MEM and incubated for 48 hours (GP1 or cisplatin) or 72 hours (GP2 or carboplatin). After incubation, 50 µL CellTiter-Glo 2.0 (Promega, Madison, WI) was added to each well and the assay was carried out following the manufacturer’s protocol.
(§4) Luminescence of the wells was measured using a Synergy H1 microplate reader (BioTek, Winooski, VT). Viability was determined by comparing luminescence readings of the cells treated with agent to untreated control cells. […]
(In general: In ATP-based viability assays light output follows the ATP content of the culture.)

The next data set concerns HeLa cells. As to the kind of experiment: Cell viability assay (CellTiter-Glo 2.0). Particulars: 48 h incubation. The data set is classed as cell-based. The procedure: as §1, §2, §3, §4
A further data set relates to MCF-7 cells. In words: Cell viability assay (CellTiter-Glo 2.0). The class given is cell-based. Conditions: MCF-7, 48 h incubation. As for the experimental part: as §1, §2, §3, §4
The test system of data set [3] is A2780 cells. As to the kind of experiment: MR imaging of cell pellets at 7 T. The data set is classed as cell-based. Conditions: A2780, 7 T, 6 h incubation; cisplatin 7.5 μM, 1 100 μM, GP1 30 μM, GP2 60 μM.

Broadly, the IC50 is the concentration at which inhibition is half-maximal.

Consider `[NH2][Pt]([NH2])([OH])([Cl])([Cl])[O]C(=O)CCCCCN1CCN2CCN3CCN(CC1)CC(=O)[O][Gd]([O]C(=O)C2)[O]C(=O)C3` [GP1], for which the “r1 (T1 relaxivity)” value in data set [1] (1.41 T) is 7.0 mM⁻¹ s⁻¹; in data set [1] (7 T), 7.1 mM⁻¹ s⁻¹. Moreover, the IC50 in the data set on A2780 cells [2] amounted to 29.8 ± 2.5 µM; in the data set with HeLa cells, 49.3 ± 1.3 µM; in the data set with MCF-7 cells, 113 ± 4 µM. The “T1 of cell pellet” value in the data set on A2780 cells [3] amounted to 1708 ± 27 ms. Also, the “Δ R1 (increase in R1 vs untreated control)” value in the data set on A2780 cells [3] was determined as 36%.

The values above are taken from publication PMC8157322, “Gd(III)–Pt(IV) theranostic contrast agents for tandem MR imaging and chemotherapy” (Chemical Science, 2020).
